Measured values reported in PubChem BioAssay AID2060903 (Molecular Pharmacology Branch, DTP, NCI, 2025).

Tested on: 377384-186-R-J1-PDC complex spheroid viability
Assay: Anticancer human tumor 377384-186-R-J1-PDC patient-derived pancreatic carcinoma cell line growth inhibition [RAS]
Settings: for IC50: curve of first compound; for viability, T/C: stronger effect = lower value; active means viability on the fitted dose curve at most 10% of control; inactive means the rest
How it was run: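 Tumour cells grown as complex spheroids with HUVEC endothelial cells and mesenchymal stem cells, treated with RAS pathway inhibitor combinations. Each agent spans half-log steps from near clinical Cmax, or 10 microM where Cmax is unknown.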

[1] = second compound 0.000949 µM, first compound 0.0316 µM
[2] = second compound 0.000949 µM, first compound 0.1 µM
[3] = second compound 0.000949 µM, first compound 0.316 µM
[4] = second compound 0.000949 µM, first compound 1 µM
[5] = second compound 0.003 µM, first compound 0.0316 µM
[6] = second compound 0.003 µM, first compound 0.1 µM
[7] = second compound 0.003 µM, first compound 0.316 µM
[8] = second compound 0.003 µM, first compound 1 µM
[9] = second compound 0.00949 µM, first compound 0.0316 µM
[10] = second compound 0.00949 µM, first compound 0.1 µM
[11] = second compound 0.00949 µM, first compound 0.316 µM
[12] = second compound 0.00949 µM, first compound 1 µM
[13] = second compound 0.03 µM, first compound 0.0316 µM
[14] = second compound 0.03 µM, first compound 0.1 µM
[15] = second compound 0.03 µM, first compound 0.316 µM
[16] = second compound 0.03 µM, first compound 1 µM
[17] = second compound 0.0949 µM, first compound 0.0316 µM
[18] = second compound 0.0949 µM, first compound 0.1 µM
[19] = second compound 0.0949 µM, first compound 0.316 µM
[20] = second compound 0.0949 µM, first compound 1 µM
[21] = second compound 0.3 µM, first compound 0.0316 µM
[22] = second compound 0.3 µM, first compound 0.1 µM
[23] = second compound 0.3 µM, first compound 0.316 µM
[24] = second compound 0.3 µM, first compound 1 µM
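Further: spheroids exposed to compounds for seven days before readout.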

CCN1CCN(Cc2ccc(Nc3ncc(F)c(-c4cc(F)c5nc(C)n(C(C)C)c5c4)n3)nc2)CC1 + CCn1c(-c2cc(N3CCN(C)CC3)cnc2C(C)OC)c2c3cc(ccc31)-c1csc(n1)CC(NC(=O)C1CC1C)C(=O)N1CCCC(N1)C(=O)OCC(C)(C)C2
inactive: viability, T/C (second compound 0.000949 µM, first compound 0.00316 µM) 49.8% | viability, T/C (second compound 0.000949 µM, first compound 0.01 µM) 45% | viability, T/C [1] 35.2% | viability, T/C [2] 24.1% | viability, T/C [3] 16.6% | viability, T/C [4] 11.2% | viability, T/C (second compound 0.003 µM, first compound 0.00316 µM) 15.5% | viability, T/C (second compound 0.003 µM, first compound 0.01 µM) 14.5% | viability, T/C [5] 15.9% | viability, T/C [6] 10.2%
active: viability, T/C [7] 6.69% | viability, T/C [8] 4.94% | viability, T/C (second compound 0.00949 µM, first compound 0.00316 µM) 6.06% | viability, T/C (second compound 0.00949 µM, first compound 0.01 µM) 5.48% | viability, T/C [9] 4.58% | viability, T/C [10] 3.84% | viability, T/C [11] 3.67% | viability, T/C [12] 2.8% | viability, T/C (second compound 0.03 µM, first compound 0.00316 µM) 3.02% | viability, T/C (second compound 0.03 µM, first compound 0.01 µM) 2.33% | viability, T/C [13] 2.87% | viability, T/C [14] 2.54% | viability, T/C [15] 2.06% | viability, T/C [16] 2.27% | viability, T/C (second compound 0.0949 µM, first compound 0.00316 µM) 1.82% | viability, T/C (second compound 0.0949 µM, first compound 0.01 µM) 1.82% | viability, T/C [17] 1.85% | viability, T/C [18] 2.2% | viability, T/C [19] 2.06% | viability, T/C [20] 1.76% | viability, T/C (second compound 0.3 µM, first compound 0.00316 µM) 1.71% | viability, T/C (second compound 0.3 µM, first compound 0.01 µM) 3.5% | viability, T/C [21] 2.34% | viability, T/C [22] 1.78% | viability, T/C [23] 2.27% | viability, T/C [24] 1.13%
< 3.16 nM: IC50 (second compound 0.000949 µM) | IC50 (second compound 0.003 µM) | IC50 (second compound 0.00949 µM) | IC50 (second compound 0.03 µM) | IC50 (second compound 0.0949 µM) | IC50 (second compound 0.3 µM)

NC1c2ccccc2OC12CCN(c1cnc3c(N4CCCc5ncccc54)n[nH]c3n1)CC2 (stereo unspecified) + CCn1c(-c2cccnc2C(C)OC)c2c3cc(ccc31)N1CCOC(CC(NC(=O)C(C(C)C)N(C)C(=O)C3(F)CCN(C(=O)C#CC(C)(C)N(C)C)CC3)C(=O)N3CCCC(N3)C(=O)OCC(C)(C)C2)C1
> 10000 nM: IC50 (second compound 0.000949 µM) | IC50 (second compound 0.003 µM) | IC50 (second compound 0.00949 µM) | IC50 (second compound 0.03 µM) | IC50 (second compound 0.0949 µM) | IC50 (second compound 0.3 µM)
inactive: viability, T/C [1] 106% | viability, T/C [2] 97.5% | viability, T/C [3] 88.2% | viability, T/C [4] 82.3% | viability, T/C (second compound 0.000949 µM, first compound 3.16 µM) 84.3% | viability, T/C (second compound 0.000949 µM, first compound 10 µM) 84.3% | viability, T/C [5] 98.8% | viability, T/C [6] 86.1% | viability, T/C [7] 82.2% | viability, T/C [8] 79.9% | viability, T/C (second compound 0.003 µM, first compound 3.16 µM) 93.3% | viability, T/C (second compound 0.003 µM, first compound 10 µM) 67.4% | viability, T/C [9] 97.3% | viability, T/C [10] 84.3% | viability, T/C [11] 84.5% | viability, T/C [12] 73.8% | viability, T/C (second compound 0.00949 µM, first compound 3.16 µM) 89.8% | viability, T/C (second compound 0.00949 µM, first compound 10 µM) 76.1% | viability, T/C [13] 102% | viability, T/C [14] 84.4% | viability, T/C [15] 70.6% | viability, T/C [16] 86% | viability, T/C (second compound 0.03 µM, first compound 3.16 µM) 79.2% | viability, T/C (second compound 0.03 µM, first compound 10 µM) 68.1% | viability, T/C [17] 75.6% | viability, T/C [18] 82.6% | viability, T/C [19] 81% | viability, T/C [20] 69.3% | viability, T/C (second compound 0.0949 µM, first compound 3.16 µM) 74% | viability, T/C (second compound 0.0949 µM, first compound 10 µM) 71.9% | viability, T/C [21] 67.6% | viability, T/C [22] 60.1% | viability, T/C [23] 59.4% | viability, T/C [24] 63.1% | viability, T/C (second compound 0.3 µM, first compound 3.16 µM) 70.9% | viability, T/C (second compound 0.3 µM, first compound 10 µM) 59.9%

C[C@@H](NC(=O)c1ncnc(N)c1Cl)c1ncc(C(=O)Nc2cc(C(F)(F)F)c(Cl)cn2)s1 + C#Cc1c(F)ccc2cc(O)cc(-c3ncc4c(N5CC6CCC(C5)N6)nc(OCC56CCCN5CC(F)C6)nc4c3F)c12
active: viability, T/C (second compound 0.316 µM, first compound 0.0316 µM) 7.93% | viability, T/C (second compound 0.316 µM, first compound 0.1 µM) 8.44% | viability, T/C (second compound 0.316 µM, first compound 0.316 µM) 10.6% | viability, T/C (second compound 0.316 µM, first compound 1 µM) 9.52% | viability, T/C (second compound 0.316 µM, first compound 3.16 µM) 11.1% | viability, T/C (second compound 0.316 µM, first compound 10 µM) 10.5% | viability, T/C (second compound 1 µM, first compound 0.0316 µM) 4.26% | viability, T/C (second compound 1 µM, first compound 0.1 µM) 5.19% | viability, T/C (second compound 1 µM, first compound 0.316 µM) 5.9% | viability, T/C (second compound 1 µM, first compound 1 µM) 8.08% | viability, T/C (second compound 1 µM, first compound 3.16 µM) 8.4% | viability, T/C (second compound 1 µM, first compound 10 µM) 6.52% | viability, T/C (second compound 3.16 µM, first compound 0.0316 µM) 3.23% | viability, T/C (second compound 3.16 µM, first compound 0.1 µM) 2.84% | viability, T/C (second compound 3.16 µM, first compound 0.316 µM) 2.97% | viability, T/C (second compound 3.16 µM, first compound 1 µM) 3.77% | viability, T/C (second compound 3.16 µM, first compound 3.16 µM) 4.25% | viability, T/C (second compound 3.16 µM, first compound 10 µM) 4.87% | viability, T/C (second compound 10 µM, first compound 0.0316 µM) 2.04% | viability, T/C (second compound 10 µM, first compound 0.1 µM) 1.21% | viability, T/C (second compound 10 µM, first compound 0.316 µM) 1.76% | viability, T/C (second compound 10 µM, first compound 1 µM) 2.5% | viability, T/C (second compound 10 µM, first compound 3.16 µM) 3.8% | viability, T/C (second compound 10 µM, first compound 10 µM) 1.16%
< 31.6 nM: IC50 (second compound 0.0316 µM) | IC50 (second compound 0.1 µM) | IC50 (second compound 0.316 µM) | IC50 (second compound 1 µM) | IC50 (second compound 3.16 µM) | IC50 (second compound 10 µM)
inactive: viability, T/C (second compound 0.0316 µM, first compound 0.0316 µM) 30.5% | viability, T/C (second compound 0.0316 µM, first compound 0.1 µM) 27.9% | viability, T/C (second compound 0.0316 µM, first compound 0.316 µM) 30% | viability, T/C (second compound 0.0316 µM, first compound 1 µM) 31.1% | viability, T/C (second compound 0.0316 µM, first compound 3.16 µM) 30.3% | viability, T/C (second compound 0.0316 µM, first compound 10 µM) 27.2% | viability, T/C (second compound 0.1 µM, first compound 0.0316 µM) 14.6% | viability, T/C (second compound 0.1 µM, first compound 0.1 µM) 16.2% | viability, T/C (second compound 0.1 µM, first compound 0.316 µM) 14.1% | viability, T/C (second compound 0.1 µM, first compound 1 µM) 19.3% | viability, T/C (second compound 0.1 µM, first compound 3.16 µM) 16.2% | viability, T/C (second compound 0.1 µM, first compound 10 µM) 14.4%
